Reference: PubChem BioAssay AID248 (DTP/NCI, 2004)
Inconclusive results and toxic doses are left out. Rule as the data show it: active = T/C of 150% or more; inactive = T/C below 125%.

System: L1210 leukemia ip in BDF1 mice, survival T/C
Test: NCI In Vivo Anticancer Drug Screen. Data for tumor model L1210 Leukemia (intraperitoneal) in B6D2F1 (BDF1) mice
Details: endpoint: mean survival time, higher = longer survival
Outline: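 Tumor cells were implanted, animals were treated, and survival was followed. The result divides the treated measurement by the vehicle-control measurement.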

[1] = dose: 50.0 mg/kg/injection, schedule: Q01DX001 (ip), vehicle: saline
[2] = dose: 100.0 mg/kg/injection, schedule: Q01DX001 (ip), vehicle: saline
[3] = dose: 200.0 mg/kg/injection, schedule: Q01DX001 (ip), vehicle: saline
[4] = dose: 400.0 mg/kg/injection, schedule: Q01DX001 (ip), vehicle: saline
[5] = dose: 100.0 mg/kg/injection, schedule: Q01DX009 (ip), vehicle: Klucel (hydroxypropylcellulose) (HPC)
[6] = dose: 100.0 mg/kg/injection, schedule: Q04DX003 (ip), vehicle: Klucel (hydroxypropylcellulose) (HPC)
[7] = dose: 200.0 mg/kg/injection, schedule: Q04DX003 (ip), vehicle: Klucel (hydroxypropylcellulose) (HPC)
[8] = dose: 400.0 mg/kg/injection, schedule: Q04DX003 (ip), vehicle: Klucel (hydroxypropylcellulose) (HPC)
[9] = dose: 100.0 mg/kg/injection, schedule: Q04DX003 (ip), vehicle: acetone
[10] = dose: 200.0 mg/kg/injection, schedule: Q04DX003 (ip), vehicle: acetone
[11] = dose: 400.0 mg/kg/injection, schedule: Q04DX003 (ip), vehicle: acetone
[12] = dose: 100.0 mg/kg/injection, schedule: Q01DX001 (ip), vehicle: saline with Tween-80
[13] = dose: 100.0 mg/kg/injection, schedule: Q04DX003 (ip), vehicle: saline with Tween-80
[14] = dose: 200.0 mg/kg/injection, schedule: Q04DX003 (ip), vehicle: saline with Tween-80
[15] = dose: 400.0 mg/kg/injection, schedule: Q04DX003 (ip), vehicle: saline with Tween-80
[16] = dose: 100.0 mg/kg/injection, schedule: Q01DX001 (ip), vehicle: other
[17] = dose: 200.0 mg/kg/injection, schedule: Q01DX001 (ip), vehicle: other
[18] = dose: 400.0 mg/kg/injection, schedule: Q01DX001 (ip), vehicle: other

Measured: T/C

O=C(O)c1c2ccccc2nc2ccccc12
inactive: [1] 102 % of control | [2] 111 % of control

CCCC(=O)N1CCCCC1
inactive: dose: 100.0 mg/kg/injection, schedule: Q04DX002 (ip), vehicle: Klucel (hydroxypropylcellulose) (HPC) 88 % of control

CC(c1ccccc1)n1cnc2c(=S)nc[nH]c21 (centres undefined)
inactive: [2] 92 % of control | [3] 95 % of control | [4] 103 % of control

CN(C)c1ccc(/C=C/c2ccc(N(C)C)cc2)cc1
inactive: [5] 98 % of control | [6] 98 % of control | dose: 200.0 mg/kg/injection, schedule: Q01DX009 (ip), vehicle: Klucel (hydroxypropylcellulose) (HPC) 102 % of control | [7] 94 % of control | dose: 400.0 mg/kg/injection, schedule: Q01DX009 (ip), vehicle: Klucel (hydroxypropylcellulose) (HPC) 93 % of control | [8] 100 % of control

ClC1=CC2CCC(C2)C1Cl (centres undefined)
inactive: dose: 100.0 mg/kg/injection, schedule: Q01DX009 (ip), vehicle: saline 106 % of control | [9] 88 % of control | dose: 200.0 mg/kg/injection, schedule: Q01DX009 (ip), vehicle: saline 102 % of control | [10] 88 % of control | dose: 400.0 mg/kg/injection, schedule: Q01DX009 (ip), vehicle: saline 103 % of control | [11] 90 % of control

CC[CH2][Sn]([CH2]CC)([CH2]CC)[O]C(=O)CN1CCC[CH]([Hg][c]2cccnc2)C1 (centres undefined)
inactive: [1] 98 % of control | [2] 109 % of control | [3] 104 % of control

CSc1nc(-c2cccs2)cc(C(F)(F)F)n1
inactive: dose: 100.0 mg/kg/injection, schedule: Q04DX003 (ip), vehicle: gum acacia 97 % of control | dose: 200.0 mg/kg/injection, schedule: Q04DX003 (ip), vehicle: gum acacia 100 % of control | dose: 400.0 mg/kg/injection, schedule: Q04DX003 (ip), vehicle: gum acacia 102 % of control

Cc1cc(C)nc(NNc2nc(C)cc(C)n2)n1
inactive: [12] 105 % of control | [13] 92 % of control | dose: 200.0 mg/kg/injection, schedule: Q01DX001 (ip), vehicle: saline with Tween-80 104 % of control | [14] 92 % of control | dose: 400.0 mg/kg/injection, schedule: Q01DX001 (ip), vehicle: saline with Tween-80 100 % of control | [15] 100 % of control

CC1(C)CC(=O)N/C1=C\C1NC(=O)CC1(C)C (centres undefined)
inactive: dose: 100.0 mg/kg/injection, schedule: Q01DX009 (ip), vehicle: saline with Tween-80 96 % of control | dose: 200.0 mg/kg/injection, schedule: Q01DX009 (ip), vehicle: saline with Tween-80 104 % of control | dose: 400.0 mg/kg/injection, schedule: Q01DX009 (ip), vehicle: saline with Tween-80 102 % of control

Cc1ccc(-c2nnc3n2C(C)(C)N=C(N)N3)cc1
inactive: [13] 105 % of control | [14] 91 % of control | [15] 101 % of control

C=C(CCCCC)C(=O)/C=C/c1ccc(Cl)c(Cl)c1
inactive: dose: 12.5 mg/kg/injection, schedule: Q04DX002 (ip), vehicle: DMSO 101 % of control | dose: 25.0 mg/kg/injection, schedule: Q04DX002 (ip), vehicle: DMSO 114 % of control | dose: 50.0 mg/kg/injection, schedule: Q04DX002 (ip), vehicle: DMSO 104 % of control

O=P(O)(c1cccc(Cl)c1)c1cccc(Cl)c1
inactive: dose: 100.0 mg/kg/injection, schedule: Q01DX001 (ip), vehicle: acetone 91 % of control | [9] 97 % of control | dose: 200.0 mg/kg/injection, schedule: Q01DX001 (ip), vehicle: acetone 96 % of control | [10] 107 % of control | dose: 400.0 mg/kg/injection, schedule: Q01DX001 (ip), vehicle: acetone 91 % of control | [11] 97 % of control

S=C(NCCCN1Cc2ccccc2C1)Nc1ccccc1
inactive: [2] 96 % of control | [3] 104 % of control | [4] 96 % of control

C=CCCCCCCCCC(=O)OC
inactive: [2] 100 % of control | [3] 96 % of control | [4] 100 % of control

CC(CN(C)C)C(O)(c1ccccc1)c1ccccc1 (centres undefined)
inactive: [1] 98 % of control | [2] 98 % of control | [3] 104 % of control

O=C1NC(c2ccc3ccccc3n2)Nc2ccccc21 (centres undefined)
inactive: dose: 50.0 mg/kg/injection, schedule: Q01DX009 (ip), vehicle: Klucel (hydroxypropylcellulose) (HPC) 92 % of control | [5] 93 % of control | dose: 150.0 mg/kg/injection, schedule: Q01DX009 (ip), vehicle: Klucel (hydroxypropylcellulose) (HPC) 90 % of control

CCn1c(C)[n+](CC)c2ccc(C(C)=O)cc21
inactive: [12] 97 % of control

CCC(C)N(C(C)=O)C(C)CC (centres undefined)
inactive: dose: 25.0 mg/kg/injection, schedule: Q01DX001 (ip), vehicle: saline 107 % of control | [1] 97 % of control | [2] 100 % of control

O=P(Nc1ccc(Cl)c(Cl)c1)(N1CCCCC1)N1CCCCC1
inactive: [6] 93 % of control | [7] 91 % of control | [8] 93 % of control

C=CCNCCN1CCN(CCCN2c3ccccc3Sc3ccc(C(F)(F)F)cc32)CC1
inactive: dose: 6.25 mg/kg/injection, schedule: Q04DX003 (ip), vehicle: saline 106 % of control | dose: 12.5 mg/kg/injection, schedule: Q01DX009 (ip), vehicle: saline 103 % of control | dose: 12.5 mg/kg/injection, schedule: Q04DX003 (ip), vehicle: saline 98 % of control | dose: 25.0 mg/kg/injection, schedule: Q01DX009 (ip), vehicle: saline 102 % of control | dose: 25.0 mg/kg/injection, schedule: Q04DX003 (ip), vehicle: saline 102 % of control | dose: 50.0 mg/kg/injection, schedule: Q04DX003 (ip), vehicle: saline 96 % of control

CCc1c(CNc2ccc(C(=O)NC(CC(=O)O)CC(=O)O)cc2)ccc2nc(N)nc(N)c12
inactive: dose: 0.25 mg/kg/injection, schedule: Q01DX009 (ip), vehicle: saline 114 % of control | dose: 1.0 mg/kg/injection, schedule: Q01DX009 (ip), vehicle: saline 103 % of control | dose: 1.0 mg/kg/injection, schedule: Q04DX003 (ip), vehicle: saline 118 % of control

O=C(CCCC(=O)N/N=C/c1ccc(OCc2ccccc2)cc1)N/N=C\c1ccc(OCc2ccccc2)cc1
inactive: dose: 50.0 mg/kg/injection, schedule: Q01DX001 (ip), vehicle: other 102 % of control | [16] 93 % of control | [17] 93 % of control | [18] 91 % of control

CN(C)Cc1c(C(O)(c2ccccc2)c2ccccc2)ccc2ccccc12
inactive: dose: 50.0 mg/kg/injection, schedule: Q01DX001 (ip), vehicle: carboxymethylcellulose (CMC) 90 % of control | dose: 100.0 mg/kg/injection, schedule: Q01DX001 (ip), vehicle: carboxymethylcellulose (CMC) 100 % of control | dose: 200.0 mg/kg/injection, schedule: Q01DX001 (ip), vehicle: carboxymethylcellulose (CMC) 96 % of control | dose: 400.0 mg/kg/injection, schedule: Q01DX001 (ip), vehicle: carboxymethylcellulose (CMC) 90 % of control

Cc1ccnc(NC2=CC(=O)C(=O)c3ccccc32)c1
inactive: [16] 93 % of control | [17] 95 % of control | [18] 103 % of control
